Assay results from patent US7888382B2, “Combined pharmaceutical preparation for treatment of type 2 diabetes” (Kissei Pharmaceutical Co., Ltd., priority 2005, dated 2011).
Where two headings read alike, the source gives them in different places.

How the values were obtained:
[1] = tested on: patients with type 2 diabetes; settings: human, in vivo
Description: Clinical trials as follows were performed with double-blind, parallel group trial on patients with type 2 diabetes.
Type 2 diabetic patients of at least 20 years old whose blood glucose could not be sufficiently controlled by a dietary therapy and who requires introduction of medication and has HbA1C of at least 6.5% and less than 8.5%.
(1) 5 mg tablet of mitiglinide calcium hydrate (hereafter also referred to as “KAD-1229”)
(2) placebo tablet of KAD-1229 5 mg tablet
(4) placebo tablet of KAD-1229 10 mg tablet
(5) 0.2 mg tablet of voglibose
(6) placebo tablet of voglibose 0.2 mg tablet
(Method of Administration)
A 0.2 mg tablet of voglibose was orally administered 3 times a day immediately before every meal (within 5 minutes before eating) for 16 weeks (an observation period: a non-blind trial period). Thereafter, investigational drugs distributed as Table 1 were orally administered 3 times a day immediately before every meal (within 5 minutes before eating) for 12 weeks (a treatment period: a double-blind trial period). Administration of the investigational drugs after meal was not allowed, and administration was not performed when the meal was not taken.
The following items were assessed during and after the period of administration.

Male Wistar rats = test: Oral sucrose tolerance test; assay type: in vivo, rat; settings: in combination with voglibose, sucrose 2.5 g/kg, compared to nateglinide or repaglinide, FIG. 11
Description: Male Wistar rats purchased from Japan SLC, Inc. were used in this test.
An oral sucrose tolerance test was performed using 7-week-old rats.
The rats were fasted for at least 16 hours and received oral administration of 2.5 mL/kg of a prepared tested substance or a vehicle (0.5% CMC solution), followed by oral administration of 5 mL/kg of 0.5 g/mL sucrose solution (2.5 g/kg). Blood was drawn from a rat tail vein immediately before administration and 0.25 and 0.5 hours after loading. A plasma glucose concentration was measured using a Glucose CII-test Wako (Wako Pure Chemical Industries, Ltd.).
A dose of the tested substance was converted from a usual dose of each drug for a type 2 diabetic patient (mitiglinide: 10 mg, nateglinide: 120 mg, repaglinide: 1 mg). As for nateglinide, a converted value of 12 mg was changed to 20 mg to be set as a dose, considering an effect thereof.
An area under the plasma glucose concentration-time curve from a time before sucrose loading to 0.5 hours after sucrose loading (AUC0-0.5 hr) was set as an assessment item. Blood glucose AUC0-0.5 hr was calculated from plasma glucose concentrations with a trapezoidal rule using the area under the plasma glucose concentration-time curve.
Excel (Microsoft Corp.) and GraphPad Prism 3.0 (GraphPad Software Inc.) were used to aggregate and calculate data, to make diagrams and the like. […]

| SMILES | Incidence rate of gastrointestinal disorders ([1]; 12 weeks) [%] | Incidence rate of hypoglycemic symptoms ([1]; 12 weeks) [%] | Incidence rate of gastrointestinal disorders [1] [%] | Incidence rate of hypoglycemic symptoms [1] [%] | blood glucose decreasing effect (blood glucose AUC0-0.5 hr) (Male Wistar rats) |
| --- | --- | --- | --- | --- | --- |
| OCC(CO)N[C@H]1C[C@](O)(CO)[C@@H](O)[C@H](O)[C@H]1O [Comparative Example 1, voglibose] | 10.1 | 1.1 | – | – | – |
| O.O.O=C([O-])[C@H](CC(=O)N1C[C@H]2CCCC[C@H]2C1)Cc1ccccc1.O=C([O-])[C@H](CC(=O)N1C[C@H]2CCCC[C@H]2C1)Cc1ccccc1.[Ca+2] [Comparative Example 2, mitiglinide calcium hydrate] | – | – | 6.8 | 3.9 | strong blood glucose decreasing effect within a very short time |
